Experimental findings from patent US20260015350A1, “AZAQUINAZOLINE PAN-KRAS INHIBITORS” (Mirati Therapeutics, Inc., priority 2022, published 2026) are described below.

Where only a bound is given, the exact number is not on record here.

The target of one assay is T1, KRas^WT (Homo sapiens, UniProt P01116).
T1 construct: Biotinylated KRas (corresponding to amino acids 1-169, produced at Accelegan Inc.); biotin (biotinylated); purchased Accelegan Inc
As to the kind of experiment: KRas binding assay (TR-FRET tracer displacement), KRas WT. The note with it: for IC50: TR-FRET tracer displacement, KRas WT.

The target in another assay is T2, KRas^G12A (Homo sapiens, UniProt P01116, G12A).
T2 construct: Biotinylated KRas (corresponding to amino acids 1-169, produced at Accelegan Inc.); biotin (biotinylated); purchased Accelegan Inc
T2 sequence (P01116 1-169 isoform P01116-2 G12A): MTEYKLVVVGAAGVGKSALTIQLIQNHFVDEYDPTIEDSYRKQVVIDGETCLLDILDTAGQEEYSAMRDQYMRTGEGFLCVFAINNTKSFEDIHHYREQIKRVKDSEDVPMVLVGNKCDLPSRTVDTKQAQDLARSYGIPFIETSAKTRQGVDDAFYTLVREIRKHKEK
As to the kind of experiment: KRas binding assay (TR-FRET tracer displacement), KRas G12A. The note with it: for IC50: TR-FRET tracer displacement, KRas G12A.

In another assay the target is T3, KRas^G12C (Homo sapiens, UniProt P01116, G12C).
T3 construct: Biotinylated KRas (corresponding to amino acids 1-169, produced at Accelegan Inc.); biotin (biotinylated); purchased Accelegan Inc
T3 sequence (P01116 1-169 isoform P01116-2 G12C): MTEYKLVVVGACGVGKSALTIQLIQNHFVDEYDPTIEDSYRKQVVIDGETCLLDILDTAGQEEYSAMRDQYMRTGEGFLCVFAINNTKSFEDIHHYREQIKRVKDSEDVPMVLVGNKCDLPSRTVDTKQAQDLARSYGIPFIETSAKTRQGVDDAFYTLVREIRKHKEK
As to the kind of experiment: KRas binding assay (TR-FRET tracer displacement), KRas G12C. The note with it: for IC50: TR-FRET tracer displacement, KRas G12C. In general terms: In TR-FRET formats the signal depends on donor and acceptor labels being close together.

For a further assay, the target named is T4, KRas^G12D (Homo sapiens, UniProt P01116, G12D).
T4 construct: Biotinylated KRas (corresponding to amino acids 1-169, produced at Accelegan Inc.); biotin (biotinylated); purchased Accelegan Inc
T4 sequence (P01116 1-169 isoform P01116-2 G12D): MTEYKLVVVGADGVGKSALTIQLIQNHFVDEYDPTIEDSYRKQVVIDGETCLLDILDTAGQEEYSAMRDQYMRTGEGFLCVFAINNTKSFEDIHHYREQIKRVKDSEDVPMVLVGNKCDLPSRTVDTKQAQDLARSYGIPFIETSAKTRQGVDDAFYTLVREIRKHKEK
As to the kind of experiment: KRas binding assay (TR-FRET tracer displacement), KRas G12D.

The next assay has as its target T5, KRas^G12R (Homo sapiens, UniProt P01116, G12R).
T5 construct: Biotinylated KRas (corresponding to amino acids 1-169, produced at Accelegan Inc.); biotin (biotinylated); purchased Accelegan Inc
Description: KRas binding assay (TR-FRET tracer displacement), KRas G12R.

In the next assay the target is T6, KRas^G12S (Homo sapiens, UniProt P01116, G12S).
T6 construct: Biotinylated KRas (corresponding to amino acids 1-169, produced at Accelegan Inc.); biotin (biotinylated); purchased Accelegan Inc
T6 sequence (P01116 1-169 isoform P01116-2 G12S): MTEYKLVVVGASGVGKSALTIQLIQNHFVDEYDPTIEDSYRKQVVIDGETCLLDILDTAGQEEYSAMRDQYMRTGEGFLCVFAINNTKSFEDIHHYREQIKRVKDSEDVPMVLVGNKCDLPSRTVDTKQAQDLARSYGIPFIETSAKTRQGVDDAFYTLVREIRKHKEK
Description: KRas binding assay (TR-FRET tracer displacement), KRas G12S. The conditions noted are these: for IC50: TR-FRET tracer displacement, KRas G12S.

Another assay addresses T7, KRas^G12V (Homo sapiens, UniProt P01116, G12V).
T7 construct: Biotinylated KRas (corresponding to amino acids 1-169, produced at Accelegan Inc.); biotin (biotinylated); purchased Accelegan Inc
As to the kind of experiment: KRas binding assay (TR-FRET tracer displacement), KRas G12V.

The next assay has as its target T8, KRas^G13D (Homo sapiens, UniProt P01116, G13D).
T8 construct: Biotinylated KRas (corresponding to amino acids 1-169, produced at Accelegan Inc.); biotin (biotinylated); purchased Accelegan Inc
Description: KRas binding assay (TR-FRET tracer displacement), KRas G13D. The conditions noted are these: for IC50: TR-FRET tracer displacement, KRas G13D.

The target in a further assay is T9, KRas^Q61H (Homo sapiens, UniProt P01116, Q61H).
T9 construct: Biotinylated KRas (corresponding to amino acids 1-169, produced at Accelegan Inc.); biotin (biotinylated); purchased Accelegan Inc
T9 sequence (P01116 1-169 isoform P01116-2 Q61H): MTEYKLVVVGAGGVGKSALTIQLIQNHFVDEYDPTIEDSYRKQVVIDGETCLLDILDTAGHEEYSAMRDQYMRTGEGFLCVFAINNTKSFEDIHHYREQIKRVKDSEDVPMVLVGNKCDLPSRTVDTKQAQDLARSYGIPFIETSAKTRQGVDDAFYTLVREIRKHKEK
Description: KRas binding assay (TR-FRET tracer displacement), KRas Q61H. The conditions noted are these: for IC50: TR-FRET tracer displacement, KRas Q61H.

The subject of assay [1] is KRas-mediated phosphorylation of ERK in AsPC-1 cells. Description: Inhibition of KRas-mediated phosphorylation of ERK (Cisbio HTRF pERK), AsPC-1 cells. The format is cell-based. The conditions noted are these: Homo sapiens; for inhibition at 0.1 µM: ASPC1, 3 h, single point, 100 nM compound, 3 hrs, AsPC-1 cells; for IC50: ASPC1, AsPC-1 cells, HTRF pERK. The essentials:
(§1)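 Following a 3-hr exposure of cells to serially diluted compound (from 10 uM, 3-fold, 10 doses), cold lysis for 40 mins preceded a 2-hr room-temperature HTRF immunoassay for phosphorylated ERK.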

In assay [2] the test system is KRas-mediated phosphorylation of ERK in H727 cells. Description: Inhibition of KRas-mediated phosphorylation of ERK (Cisbio HTRF pERK), H727 cells. Format: cell-based. The conditions noted are these: Homo sapiens; for inhibition at 0.1 µM: NCI-H727, 3 h, single point, 100 nM compound, 3 hrs, H727 cells; for IC50: NCI-H727, H727 cells, HTRF pERK. An outline of the steps:
as §1

The subject of assay [3] is KRas-mediated phosphorylation of ERK in A549 cells. Description: Inhibition of KRas-mediated phosphorylation of ERK (Cisbio HTRF pERK), A549 cells. The format is cell-based. The note with it: Homo sapiens; for inhibition at 0.1 µM: A549, 3 h, single point, 100 nM compound, 3 hrs. An outline of the steps:
(§2)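 Cells were seeded at 6,000 per well and treated for 3 hrs with compound in a 10-dose, 3-fold series from 10 uM (0.8% final DMSO), with 0.2 uM Trametinib as Min control. Lysates made at 4° C over 40 mins were incubated 2 hrs at room temperature with d2- and Cryptate-labelled antibodies, then read by HTRF.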

Assay [4] has as its system KRas-mediated phosphorylation of ERK in H358 cells. As to the kind of experiment: Inhibition of KRas-mediated phosphorylation of ERK (Cisbio HTRF pERK), H358 cells. The format is cell-based. The note with it: Homo sapiens; for inhibition at 0.1 µM: NCI-H358, 3 h, single point, 100 nM compound, 3 hrs. The essentials: as §1
Assay [5] deals with KRas-mediated phosphorylation of ERK in H460 cells. Description: Inhibition of KRas-mediated phosphorylation of ERK (Cisbio HTRF pERK), H460 cells. The format is cell-based. The conditions noted are these: Homo sapiens. The essentials: as §1
The test system of assay [6] is KRas-mediated phosphorylation of ERK in HCT116 cells. As to the kind of experiment: Inhibition of KRas-mediated phosphorylation of ERK (Cisbio HTRF pERK), HCT116 cells. The note with it: Homo sapiens. Format: cell-based. An outline of the steps: as §2
The mark [7] stands for this setting: single point, 10 nM compound, TR-FRET.

T5 sequence (P01116 1-169 isoform P01116-2 G12R): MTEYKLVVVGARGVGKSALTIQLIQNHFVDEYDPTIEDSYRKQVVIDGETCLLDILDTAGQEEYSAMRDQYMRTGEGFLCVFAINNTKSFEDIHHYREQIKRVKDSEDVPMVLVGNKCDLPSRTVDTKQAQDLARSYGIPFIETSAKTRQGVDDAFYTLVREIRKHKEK
T8 sequence (P01116 1-169 isoform P01116-2 G13D): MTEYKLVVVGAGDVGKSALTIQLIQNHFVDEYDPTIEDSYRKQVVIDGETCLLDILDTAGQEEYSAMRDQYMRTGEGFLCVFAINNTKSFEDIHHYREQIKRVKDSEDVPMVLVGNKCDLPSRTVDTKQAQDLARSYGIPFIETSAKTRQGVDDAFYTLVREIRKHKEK
T7 sequence (P01116 1-169 isoform P01116-2 G12V): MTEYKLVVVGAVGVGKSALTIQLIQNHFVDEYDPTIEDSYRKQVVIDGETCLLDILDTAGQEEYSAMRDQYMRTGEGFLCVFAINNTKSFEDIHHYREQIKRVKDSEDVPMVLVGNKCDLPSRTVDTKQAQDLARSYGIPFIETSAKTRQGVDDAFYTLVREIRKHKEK
T1 sequence (P01116 1-169 isoform P01116-2): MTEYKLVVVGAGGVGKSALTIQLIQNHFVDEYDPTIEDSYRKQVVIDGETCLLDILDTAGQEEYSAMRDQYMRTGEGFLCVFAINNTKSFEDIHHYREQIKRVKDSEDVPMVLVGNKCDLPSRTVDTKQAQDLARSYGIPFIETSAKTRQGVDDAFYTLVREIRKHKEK

Turning to `Oc1cc2ccccc2c(-c2ncc3c(N4C[C@@H]5C[C@H](C4)[C@H](O)C5)nc(OC[C@@]45CCCN4C[C@H](F)C5)nc3c2F)c1F` [Example 751, (1R,5R,6R)-3-(8-fluoro-7-(2-fluoro-3-hydroxynaphthalen-1-yl)-2-(((2R,7aS)-2-fluorohexahydro-1H-pyrrolizin-7a-yl)methoxy)pyrido[4,3-d]pyrimidin-4-yl)-3-azabicyclo[3.2.1]octan-6-ol], the IC50 (commonly the concentration that gives 50% inhibition) at KRas^WT amounted to 167 nM; on KRas^G12A, 136 nM; on KRas^G12C, 165 nM; on KRas^G12D it was 372 nM; on KRas^G12R, 139 nM; on KRas^G12S, 91 nM. Further, the IC50 at KRas^G12V stood at 93 nM; on KRas^G13D, 172 nM; on KRas^Q61H, 185 nM; in assay [1], 5220 nM; in [2], 3830 nM. Moreover, the inhibition (commonly the change of the read-out against control, counted positive when it falls) at 0.1 µM was -2% in assay [1], -50% in assay [2], -10% in [3] and -17% in assay [4].
Turning to `Nc1nc2c(-c3ncc4c(N5CCCC6(C5)NC(=O)NC6=O)nc(OCC56CCCN5CCC6)nc4c3F)ccc(F)c2s1` (centres unmarked) [Example 736, 7-(7-(2-amino-7-fluorobenzo[d]thiazol-4-yl)-8-fluoro-2-((tetrahydro-1H-pyrrolizin-7a(5H)-yl)methoxy)pyrido[4,3-d]pyrimidin-4-yl)-1,3,7-triazaspiro[4.5]decane-2,4-dione], the IC50 at KRas^WT was 139 nM; at KRas^G12A, 173 nM; at KRas^G12C, 111 nM; on KRas^G12D, 2330 nM; at KRas^G12R, 640 nM; on KRas^G12S, 75 nM. The IC50 was found to be 664 nM at KRas^G12V, 93 nM at KRas^G13D and 26 nM at KRas^Q61H. Besides, the inhibition at 0.1 µM in assay [1] is -3%; in assay [2], -4%; in assay [3], 2%; in assay [4], 5%.
Consider `Oc1cc(-c2ncc3c(N4C[C@@H]5C[C@H](C4)[C@H](O)C5)nc(OC[C@@]45CCCN4C[C@H](F)C5)nc3c2F)c2ccccc2c1Br` [Example 781, (1R,5R,6R)-3-(7-(4-bromo-3-hydroxynaphthalen-1-yl)-8-fluoro-2-(((2R,7aS)-2-fluorohexahydro-1H-pyrrolizin-7a-yl)methoxy)pyrido[4,3-d]pyrimidin-4-yl)-3-azabicyclo[3.2.1]octan-6-ol], for which the IC50 on KRas^WT came out at 754 nM; on KRas^G12A, 716 nM; on KRas^G12C, 635 nM; on KRas^G12D, 2450 nM; at KRas^G12R, 778 nM; at KRas^G12S, 414 nM. In addition, the half-maximal inhibitory concentration (IC50) on KRas^G12V is 727 nM; at KRas^G13D, 551 nM; at KRas^Q61H, 891 nM; in [1] it was 8950 nM; in assay [2] it was more than 10000 nM. For the same compound, the inhibition at 0.1 µM in assay [3] is -24%; in assay [4], 10%.
On to `CN(C)C(=O)c1cc2n(n1)CCCN(c1nc(OCC34CCCN3CCC4)nc3c(F)c(-c4c5ccccc5cc5[nH]ncc45)ncc13)C2` [Example 757, 5-(7-(1H-benzo[f]indazol-4-yl)-8-fluoro-2-((hexahydro-1H-pyrrolizin-7a-yl)methoxy)pyrido[4,3-d]pyrimidin-4-yl)-N,N-dimethyl-5,6,7,8-tetrahydro-4H-pyrazolo[1,5-a][1,4]diazepine-2-carboxamide], for which the IC50 turned out to be 141 nM on KRas^WT; 82 nM on KRas^G12A; 46 nM at KRas^G12C; 12 nM on KRas^G12D; 101 nM on KRas^G12R; 43 nM on KRas^G12S. Further, the half-inhibitory concentration (IC50) was 42 nM on KRas^G12V; 238 nM on KRas^G13D; 203 nM on KRas^Q61H; 9840 nM in [1]; more than 10000 nM in [2]. Further, the values for the inhibition at 0.1 µM in assay [3] and in [4] were 2% and 10%, respectively.
In the case of `CCc1c(F)ccc2cc(O)cc(-c3ncc4c(N5CCC[C@]6(CCO6)C5)nc(OCC5(CN(C)C)CC5)nc4c3F)c12` [Example 699, (S)-4-(2-((1-((dimethylamino)methyl)cyclopropyl)methoxy)-8-fluoro-4-(1-oxa-6-azaspiro[3.5]nonan-6-yl)pyrido[4,3-d]pyrimidin-7-yl)-5-ethyl-6-fluoronaphthalen-2-ol], the inhibition at 0.01 µM at KRas^WT (setting [7]) amounted to 91%; at KRas^G12A (setting [7]), 87%; on KRas^G12C (setting [7]) it was 96%; on KRas^G12S (setting [7]) it was 93%; at KRas^G13D (setting [7]), 96%; at KRas^Q61H (setting [7]) it was 96%. Besides, the IC50 worked out at 2 nM in assay [1]; 6 nM in assay [2]; 2 nM in assay [3] (HTRF pERK); 5 nM in assay [5] (NCI-H460, HTRF pERK); 14 nM in assay [6] (HCT-116, HTRF pERK); 3 nM in assay [4] (NCI-H358, HTRF pERK). Also, the inhibition at 0.1 µM in assay [3] is 80%; in assay [5] (NCI-H460, 3 h, single point, 100 nM compound, 3 hrs), 95%; in assay [6] (HCT-116, 3 h, single point, 100 nM compound, 3 hrs), 82%; in [4] it was 101%.
Take `Cc1cc2[nH]c(=O)[nH]c2c(-c2ncc3c(N4CCC[C@@](C)(O)C4)nc(OCC45CCCN4CCC5)nc3c2F)c1C` [Example 733, 4-(8-fluoro-4-((R)-3-hydroxy-3-methylpiperidin-1-yl)-2-((tetrahydro-1H-pyrrolizin-7a(5H)-yl)methoxy)pyrido[4,3-d]pyrimidin-7-yl)-5,6-dimethyl-1,3-dihydro-2H-benzo[d]imidazol-2-one]: the IC50 at KRas^WT was 1370 nM; at KRas^G12A, 1520 nM; at KRas^G12C, 1520 nM; at KRas^G12D, 933 nM; on KRas^G12R, 2670 nM; at KRas^G12S, 1400 nM. Besides, the IC50 at KRas^G12V stood at 1050 nM; at KRas^G13D, 1410 nM; at KRas^Q61H it was 2280 nM. In addition, the inhibition at 0.1 µM in assay [1] was -27%; in assay [2] it was -10%; in assay [3], 7%; in [4], -2%.
Regarding `Oc1cc2ccccc2c(-c2ncc3c(N4C[C@@H]5C[C@H](C4)[C@H](O)C5)nc(OC[C@@]45CCCN4C[C@H](F)C5)nc3c2F)c1Cl` [Example 765, (1R,5R,6R)-3-(7-(2-chloro-3-hydroxynaphthalen-1-yl)-8-fluoro-2-(((2R,7aS)-2-fluorohexahydro-1H-pyrrolizin-7a-yl)methoxy)pyrido[4,3-d]pyrimidin-4-yl)-3-azabicyclo[3.2.1]octan-6-ol], the IC50 worked out at 156 nM at KRas^WT; 139 nM on KRas^G12A; 144 nM on KRas^G12C; 268 nM at KRas^G12D; 132 nM at KRas^G12R; 100 nM at KRas^G12S. The IC50 at KRas^G12V amounted to 83 nM; on KRas^G13D, 146 nM; on KRas^Q61H, 164 nM; in [1], 5910 nM; in [2], 2910 nM. The inhibition at 0.1 µM in assay [1] was -6%; in assay [2], -13%; in [3], 28%; in assay [4], -5%.
